Test results reported in the OligoGym collection.
Strand notation (5' to 3'): a small letter for the sugar, then the base; units joined by * are phosphorothioate-linked, units joined directly phosphodiester-linked; [ ] holds rarer units or linkages, { } end groups; capitals alone tell only the bases. HELM strings list units from the 5' end as sugar, base in round brackets, then linkage (d deoxyribose, r ribose, m 2'-O-methyl, p phosphodiester). [sp] = phosphorothioate linkage; d = 2'-deoxy (DNA); m = 2'-O-methyl

Tests used:
[1] = biological target: CDKN2B-AS1; assay: HEK293-TLR8, 100 nM ASO, then resiquimod
[2] = biological target: CDKN2B-AS1; assay: HEK293-TLR7, 100 nM ASO, then resiquimod
[3] = biological target: EGFR; assay: HEK293-TLR8, 100 nM ASO, then resiquimod
[4] = biological target: EGFR; assay: HEK293-TLR7, 100 nM ASO, then resiquimod

Substance | TLR8 potentiation (NF-kB luciferase) (fold of resiquimod alone) [1] | TLR7 signal (NF-kB luciferase) (% of resiquimod alone) [2] | TLR8 potentiation (NF-kB luciferase) (fold of resiquimod alone) [3] | TLR7 signal (NF-kB luciferase) (% of resiquimod alone) [4]
RNA1{m(G)[sp].m(A)[sp].m(G)[sp].m(U)[sp].m(U)[sp].d(C)[sp].d(T)[sp].d(T)[sp].d(C)[sp].d(G)[sp].d(T)[sp].d(A)[sp].d(G)[sp].d(G)[sp].d(C)[sp].m(U)[sp].m(U)[sp].m(C)[sp].m(U)[sp].m(G)}$$$$ | 0.96 | 25.9 | – | –
RNA1{m(G)[sp].m(A)[sp].m(U)[sp].m(U)[sp].m(A)[sp].d(A)[sp].d(A)[sp].d(A)[sp].d(C)[sp].d(A)[sp].d(G)[sp].d(A)[sp].d(T)[sp].d(T)[sp].d(A)[sp].m(A)[sp].m(U)[sp].m(A)[sp].m(C)[sp].m(A)}$$$$ | 0.73 | 21.9 | – | –
RNA1{m(G)[sp].m(C)[sp].m(A)[sp].m(G)[sp].m(U)[sp].d(C)[sp].d(T)[sp].d(C)[sp].d(C)[sp].d(A)[sp].d(T)[sp].d(G)[sp].d(T)[sp].d(C)[sp].d(C)[sp].m(C)[sp].m(A)[sp].m(G)[sp].m(G)[sp].m(C)}$$$$ | 1.79 | 20.3 | – | –
RNA1{m(G)[sp].m(G)[sp].m(A)[sp].m(C)[sp].m(A)[sp].d(C)[sp].d(T)[sp].d(T)[sp].d(A)[sp].d(G)[sp].d(C)[sp].d(T)[sp].d(G)[sp].d(T)[sp].d(T)[sp].m(C)[sp].m(C)[sp].m(U)[sp].m(C)[sp].m(G)}$$$$ | 1.13 | 45.8 | – | –
RNA1{m(G)[sp].m(G)[sp].m(A)[sp].m(G)[sp].m(A)[sp].d(T)[sp].d(C)[sp].d(A)[sp].d(G)[sp].d(A)[sp].d(T)[sp].d(G)[sp].d(A)[sp].d(G)[sp].d(A)[sp].m(G)[sp].m(G)[sp].m(A)[sp].m(G)[sp].m(C)}$$$$ | 1.05 | 26.3 | – | –
RNA1{m(G)[sp].m(G)[sp].m(A)[sp].m(U)[sp].m(U)[sp].d(A)[sp].d(A)[sp].d(A)[sp].d(A)[sp].d(C)[sp].d(A)[sp].d(G)[sp].d(A)[sp].d(T)[sp].d(T)[sp].m(A)[sp].m(A)[sp].m(U)[sp].m(A)[sp].m(C)}$$$$ | 1.16 | 27.2 | – | –
RNA1{m(G)[sp].m(G)[sp].m(U)[sp].m(G)[sp].m(G)[sp].d(C)[sp].d(C)[sp].d(A)[sp].d(C)[sp].d(A)[sp].d(G)[sp].d(G)[sp].d(C)[sp].d(A)[sp].d(A)[sp].m(C)[sp].m(G)[sp].m(U)[sp].m(C)[sp].m(A)}$$$$ | 0.8 | 39.1 | – | –
RNA1{m(G)[sp].m(U)[sp].m(C)[sp].m(A)[sp].m(A)[sp].d(A)[sp].d(C)[sp].d(C)[sp].d(T)[sp].d(A)[sp].d(G)[sp].d(A)[sp].d(A)[sp].d(A)[sp].d(G)[sp].m(A)[sp].m(A)[sp].m(G)[sp].m(C)[sp].m(A)}$$$$ | 1.6 | 23.6 | – | –
RNA1{m(G)[sp].m(U)[sp].m(C)[sp].m(C)[sp].m(C)[sp].d(A)[sp].d(G)[sp].d(G)[sp].d(C)[sp].d(C)[sp].d(T)[sp].d(C)[sp].d(C)[sp].d(A)[sp].d(G)[sp].m(U)[sp].m(G)[sp].m(U)[sp].m(C)[sp].m(U)}$$$$ | 1.05 | 19 | – | –
RNA1{m(G)[sp].m(U)[sp].m(C)[sp].m(G)[sp].m(U)[sp].d(G)[sp].d(G)[sp].d(C)[sp].d(A)[sp].d(A)[sp].d(A)[sp].d(T)[sp].d(A)[sp].d(G)[sp].d(T)[sp].m(C)[sp].m(C)[sp].m(U)[sp].m(A)[sp].m(G)}$$$$ | 2.12 | 27.5 | – | –
RNA1{m(G)[sp].m(U)[sp].m(C)[sp].m(U)[sp].m(C)[sp].d(C)[sp].d(A)[sp].d(T)[sp].d(G)[sp].d(T)[sp].d(C)[sp].d(C)[sp].d(C)[sp].d(A)[sp].d(G)[sp].m(G)[sp].m(C)[sp].m(C)[sp].m(U)[sp].m(C)}$$$$ | 1.01 | 23.8 | – | –
RNA1{m(G)[sp].m(U)[sp].m(C)[sp].m(U)[sp].m(C)[sp].d(T)[sp].d(A)[sp].d(C)[sp].d(T)[sp].d(G)[sp].d(T)[sp].d(T)[sp].d(A)[sp].d(C)[sp].d(C)[sp].m(U)[sp].m(C)[sp].m(U)[sp].m(G)[sp].m(A)}$$$$ | 2.41 | 19.2 | – | –
RNA1{m(G)[sp].m(U)[sp].m(G)[sp].m(G)[sp].m(U)[sp].d(T)[sp].d(A)[sp].d(A)[sp].d(G)[sp].d(T)[sp].d(A)[sp].d(C)[sp].d(A)[sp].d(T)[sp].d(G)[sp].m(A)[sp].m(G)[sp].m(C)[sp].m(U)[sp].m(C)}$$$$ | 0.59 | 21.6 | – | –
RNA1{m(G)[sp].m(U)[sp].m(G)[sp].m(U)[sp].m(C)[sp].d(C)[sp].d(T)[sp].d(T)[sp].d(C)[sp].d(A)[sp].d(T)[sp].d(G)[sp].d(C)[sp].d(T)[sp].d(T)[sp].m(U)[sp].m(G)[sp].m(G)[sp].m(A)[sp].m(U)}$$$$ | 1.33 | 18.1 | – | –
RNA1{m(G)[sp].m(U)[sp].m(G)[sp].m(U)[sp].m(U)[sp].d(T)[sp].d(T)[sp].d(T)[sp].d(A)[sp].d(A)[sp].d(T)[sp].d(T)[sp].d(T)[sp].d(T)[sp].d(G)[sp].m(U)[sp].m(A)[sp].m(G)[sp].m(A)[sp].m(G)}$$$$ | 1.31 | 23.6 | – | –
RNA1{m(U)[sp].m(A)[sp].m(A)[sp].m(A)[sp].m(A)[sp].d(T)[sp].d(A)[sp].d(A)[sp].d(G)[sp].d(G)[sp].d(G)[sp].d(G)[sp].d(A)[sp].d(A)[sp].d(T)[sp].m(A)[sp].m(G)[sp].m(G)[sp].m(G)[sp].m(G)}$$$$ | 1.28 | 41 | – | –
RNA1{m(U)[sp].m(A)[sp].m(U)[sp].m(U)[sp].m(U)[sp].d(C)[sp].d(C)[sp].d(A)[sp].d(C)[sp].d(A)[sp].d(T)[sp].d(G)[sp].d(C)[sp].d(C)[sp].d(C)[sp].m(A)[sp].m(G)[sp].m(U)[sp].m(G)[sp].m(U)}$$$$ | 2.77 | 30.5 | – | –

Substance | TLR8 potentiation (NF-kB luciferase) (fold of resiquimod alone) [1] | TLR7 signal (NF-kB luciferase) (% of resiquimod alone) [2] | TLR8 potentiation (NF-kB luciferase) (fold of resiquimod alone) [3] | TLR7 signal (NF-kB luciferase) (% of resiquimod alone) [4]
RNA1{m(U)[sp].m(C)[sp].m(U)[sp].m(C)[sp].m(C)[sp].d(A)[sp].d(T)[sp].d(G)[sp].d(T)[sp].d(C)[sp].d(C)[sp].d(C)[sp].d(A)[sp].d(G)[sp].d(G)[sp].m(C)[sp].m(C)[sp].m(U)[sp].m(C)[sp].m(C)}$$$$ | 3.41 | 43.5 | – | –
RNA1{m(U)[sp].m(G)[sp].m(U)[sp].m(G)[sp].m(A)[sp].d(A)[sp].d(A)[sp].d(A)[sp].d(G)[sp].d(A)[sp].d(T)[sp].d(T)[sp].d(A)[sp].d(T)[sp].d(C)[sp].m(U)[sp].m(U)[sp].m(C)[sp].m(U)[sp].m(U)}$$$$ | 2.79 | 34.5 | – | –
RNA1{m(U)[sp].m(U)[sp].m(A)[sp].m(A)[sp].m(A)[sp].d(T)[sp].d(A)[sp].d(A)[sp].d(T)[sp].d(C)[sp].d(T)[sp].d(A)[sp].d(G)[sp].d(T)[sp].d(T)[sp].m(U)[sp].m(G)[sp].m(A)[sp].m(A)[sp].m(G)}$$$$ | 3.96 | 25.7 | – | –
RNA1{m(U)[sp].m(U)[sp].m(G)[sp].m(U)[sp].m(G)[sp].d(A)[sp].d(A)[sp].d(A)[sp].d(A)[sp].d(G)[sp].d(A)[sp].d(T)[sp].d(T)[sp].d(A)[sp].d(T)[sp].m(C)[sp].m(U)[sp].m(U)[sp].m(C)[sp].m(U)}$$$$ | 1.05 | 35 | – | –
mA*mA*mA*mA*mA*dT*dT*dA*dC*dT*dT*dT*dA*dA*dA*mA*mG*mC*mA*mA | – | – | 1.32 | 71.1
mA*mA*mA*mA*mG*dG*dA*dG*dA*dA*dA*dA*dC*dT*dA*mU*mC*mU*mU*mC | – | – | 1.65 | 47.6
mA*mA*mG*mG*mC*dC*dC*dT*dT*dC*dG*dC*dA*dC*dT*mU*mC*mU*mU*mA | – | – | 1.49 | 31.2
mA*mA*mU*mU*mA*dC*dT*dT*dT*dA*dA*dA*dA*dG*dC*mA*mA*mA*mA*mG | – | – | 2.07 | 77.1
mA*mC*mA*mG*mU*dG*dT*dT*dG*dA*dG*dA*dT*dA*dC*mU*mC*mG*mG*mG | – | – | 2.73 | 47.6
mA*mG*mG*mU*mG*dT*dC*dC*dT*dT*dG*dC*dA*dC*dG*mU*mG*mG*mC*mU | – | – | 1.27 | 76.4
mA*mG*mU*mA*mA*dA*dA*dA*dG*dC*dT*dT*dT*dT*dG*mA*mA*mG*mU*mG | – | – | 2.7 | 48.3
mA*mU*mC*mC*mA*dC*dC*dA*dC*dG*dT*dC*dG*dT*dC*mC*mA*mU*mG*mU | – | – | 1.06 | 34.7
mA*mU*mG*mC*mC*dA*dT*dC*dC*dA*dC*dT*dT*dG*dA*mU*mA*mG*mG*mC | – | – | 1.16 | 29.3
mA*mU*mG*mU*mC*dC*dC*dG*dC*dC*dA*dC*dT*dG*dG*mA*mU*mG*mC*mU | – | – | 0.84 | 71.7
mA*mU*mU*mA*mC*dT*dT*dT*dA*dA*dA*dA*dG*dC*dA*mA*mA*mA*mG*mG | – | – | 2.17 | 42.9
mC*mA*mA*mG*mG*dC*dC*dC*dT*dT*dC*dG*dC*dA*dC*mU*mU*mC*mU*mU | – | – | 2.42 | 79.4
